Read-outs that look alike come from different tables or passages of the source.
Experiments:
[1] = test system: MHV-68-Luc; assay: MHV-68-Luc luciferase reporter assay; type: cell-based, murine herpesvirus 68; conditions: Murine herpesvirus
[2] = in vitro; conditions: African green monkey
[3] = in vitro; conditions: human, CC50
[4] = in vitro; conditions: mouse
[5] = test system: Epstein–Barr virus P3HR-1; assay: EBV lytic assay in TPA-induced P3HR-1 cells, qPCR; type: cell-based; conditions: human gammaherpesvirus 4, 240 h; EBV; TPA-induced P3HR-1, 10 d; read-out: Antiviral mean EC50 based on qPCR measurements
[6] = in vitro; conditions: human
[7] = test system: EHV-1-GFP; assay: EHV-1-GFP antiviral assay, GFP fluorometry; type: cell-based, equine herpesvirus 1
[8] = test system: vaccinia virus VV IHD-5; assay: microbe, parasite or virus in culture; type: cell-based; conditions: Orthopoxvirus vaccinia, 48 h, read-out: Antiviral mean EC50 based on luciferase measurements
[9] = test system: HHV-6A-GFP; assay: HHV-6A plaque reduction assay in HFFs; conditions: Human betaherpesvirus 6A, read-out: Antiviral mean EC50 based on plaque assay measurements
[10] = Neutral Red uptake cell viability assay, HFF; conditions: human
[11] = Neutral Red uptake cell viability assay, MEF; conditions: mouse
[12] = Neutral Red uptake cell viability assay, Vero; conditions: African green monkey
[13] = Neutral Red uptake cell viability assay, COS-7; conditions: African green monkey
[14] = Neutral Red uptake / Alamar Blue cell viability assay, 293T; conditions: human
[15] = mean CC50, HFF, HHV-6A assay conditions (Fig 2D)
[16] = CC50, Vero, reference compounds (Fig 1E)
[17] = CC50, COS-7, listed with GFP / COS-7 (Fig 1E)

Question: For `Nc1nc2c(ncn2COCCO)c(=O)[nH]1` [ACV, aciclovir], which EC50 ([1]; MHV-68-Luc, HFF) is on record?
Answer: > 5 µM

Question: And the EC50 ([1]; MHV-68-Luc, MEF)?
Answer: 22.2 ± 5.5 µM

Question: And the EC50 ([1]; Vero, MHV-68-Luc)?
Answer: 0.3 ± 0.3 µM

Question: And the CC50 at 7 d [2]?
Answer: > 100 µM

Question: And the CC50 [3]?
Answer: > 100 µM

Question: What about the CC50 at 7 d [4] of the same compound?
Answer: > 100 µM

Question: With `CC(C)(C)C(=O)OCOP(=O)(COCCn1cnc2c(N)ncnc21)OCOC(=O)C(C)(C)C` [ADV, adefovir dipivoxil] as the compound, how does the EC50 [5] read?
Answer: 1.7 ± 0.2 µM

Question: What about the CC50 at 10 d [6] of the same compound?
Answer: 93 µM

Question: Which results are given for `Nc1ncnc2c1ncn2CCOCP(=O)(O)O` [AFV, adefovir]?
Answer: EC50 [5]: 13 ± 5 µM; CC50 [6]: > 100 µM

Question: Which results are given for `CCCCCCCCCCCCCCCCOCCCOP(=O)(O)CO[C@H](CO)Cn1ccc(N)nc1=O` [BCV, brincidofovir]?
Answer: EC50 [7]: 0.03 ± 0.01 µM; EC50 ([7]; COS-7): 0.04 ± 0.003 µM; EC50 ([7]; Equus caballus, Vero): 0.002 ± 0.003 µM; EC50 ([1]; COS-7, MHV-68-Luc, COS-7): 0.2 ± 0.04 µM; EC50 ([1]; MHV-68-Luc, HFF): > 0.5 µM; EC50 ([1]; MHV-68-Luc, MEF): 0.1 ± 0.07 µM; EC50 ([1]; Vero, MHV-68-Luc): 0.01 ± 0.003 µM; EC50 [8]: 1.9 ± 0.4 µM; EC50 [9]: 0.002 ± 0.001 µM; CC50 ([10]; CC50, HFF, reference compounds (Fig 1E)): 19 ± 3 µM; CC50 [10, 15]: > 10 µM; CC50 at 7 d [11]: > 10 µM; CC50 at 7 d ([12]; CC50, Vero (Fig 4F)): > 10 µM; CC50 at 7 d [12, 16]: 1.3 ± 1.4 µM; CC50 at 4 d ([13]; CC50, COS-7 (Fig 4F)): > 10 µM; CC50 at 4 d [13, 17]: 9.8 ± 1.9 µM; CC50 at 2 d [14]: > 10 µM

Question: Which results are given for `Nc1ccn(C[C@@H](CO)OCP(=O)(O)O)c(=O)n1` [CDV, cidofovir]?
Answer: EC50 ([7]; COS-7): 3.2 ± 3.8 µM; EC50 ([7]; Equus caballus, Vero): 4.5 ± 2.4 µM; EC50 [9]: 0.4 ± 0.1 µM; CC50 [10, 15]: > 100 µM; CC50 at 7 d [12, 16]: > 100 µM; CC50 at 4 d [13, 17]: 85.6 ± 6.6 µM

Question: For `O=C(O)P(=O)(O)O` [FOS, foscarnet], which EC50 ([1]; MHV-68-Luc, HFF) is on record?
Answer: > 500 µM

Question: And the EC50 ([1]; MHV-68-Luc, MEF)?
Answer: 41.5 ± 17.5 µM

Question: What about the EC50 ([1]; Vero, MHV-68-Luc) of the same compound?
Answer: 36.4 ± 10.8 µM

Question: What about the CC50 ([10]; CC50, HFF (Fig 4F)) of the same compound?
Answer: > 1000 µM

Question: What about the CC50 at 7 d [11] of the same compound?
Answer: > 1000 µM

Question: What about the CC50 at 7 d ([12]; CC50, Vero (Fig 4F)) of the same compound?
Answer: > 1000 µM

Question: Which results are given for `COc1cccc(N2CCN(C3=Nc4c(F)cccc4[C@H](CC(=O)O)N3c3cc(C(F)(F)F)ccc3OC)CC2)c1` [LMV, letermovir]?
Answer: EC50 ([1]; MHV-68-Luc, HFF): > 50 µM; EC50 ([1]; MHV-68-Luc, MEF): > 50 µM; EC50 ([1]; Vero, MHV-68-Luc): 44 ± 3.2 µM; EC50 [8]: > 50 µM

Question: Which results are given for `CC(C)Nc1nc2cc(Cl)c(Cl)cc2n1[C@H]1O[C@@H](CO)[C@H](O)[C@@H]1O` [MBV, maribavir]?
Answer: EC50 ([1]; COS-7, MHV-68-Luc, COS-7): > 50 µM; EC50 ([1]; MHV-68-Luc, HFF): 269 ± 55.5 µM; EC50 ([1]; MHV-68-Luc, MEF): 59.6 ± 2.2 µM; EC50 ([1]; Vero, MHV-68-Luc): 88.9 ± 13.6 µM; CC50 ([10]; CC50, HFF (Fig 4F)): 163 ± 9 µM; CC50 at 7 d [11]: 179 ± 10 µM; CC50 at 7 d ([12]; CC50, Vero (Fig 4F)): > 1000 µM; CC50 at 4 d ([13]; CC50, COS-7 (Fig 4F)): > 100 µM
